Legend:
[1] = tested on: normal resting or activated human PBL cells; test: Cell death analysis of resting or activated human PBL; type: cell-based
[2] = tested on: normal cord blood mononuclear cells; test: Viability of normal human cord blood mononuclear cells (DAPI, Facs); type: cell-based; details: 5.0 and 10.0 μM, 48 h
[3] = tested on: HT-29 cell derived from human large intestine cancer; test: Tumor growth in nude mouse inoculated subcutaneously with HT-29 cells; type: in vivo; details: compared with untreated control group
Experimental: A HT-29 cell was inoculated subcutaneously into a mouse, and the transition of the size of the tumor lump was measured with time from the day on which the tumor has grown to a certain size, when each of COM-JP and 5-FU was used alone or in combination.

mTORC1 / Akt activation = test: Western blot of S6RP, 4EBP1 and Akt phosphorylation, KO99L cells; type: cell-based, murine; details: 2.0-24 h; COMPOUND-JP 10.0 μM; MK-2206 5.0 μM; KU0063794 5.0 μM; rapamycin 10.0 nM; L-Asp, Erw 2.5 units/ml; velcade at 24 h
caspase 3 = test: Western blot of caspase 3 activation and PARP cleavage, KO99L cells; type: cell-based, murine; details: 10.0 μM
Experimental: Cell extracts were prepared using a cell lysis buffer (50 mM HEPES, pH 7.4, 150 mM NaCl, 20 mM EDTA, 100 mM NaF, 10 mM Na3VO4, 0.5% nonyl phenoxypolyethoxylethanol (NP40) supplemented with a cocktail of protease inhibitors. After SDS-PAGE separation and transfer to nitrocellulose immunoblotting was performed using the following antibodies against: Akt (Cell Signaling Technologies, #9272), CHOP (#2895), cleaved caspase 3 (#9664), c-Myc (#9402), eIF2a (#9721), 4EBP1 (#9644), LC3A/B (#12741), PARP (#9542), pJnk (T183/Y185) (#9251), pSer235-236-S6RP (#4856), pSer473-Akt (#9271), pSer65-4EBP1 (#9451) and S6RP (#2217); Bax (Sigma-Aldrich, B8429); PUMA (Abcam, ab54288); Bak (Millipore, 06536); ATF4 (Santa Cruz Biotechnologies, sc200), GADD34 (sc8327), Hsp60 (sc-1722), Hsp90 (sc-13119) and XBP1 (sc-7160); ATF6 (Imgenex, IMG-273).

primary T-ALL cells = test: Cell viability of human T-ALL primary samples; type: cell-based; details: primary T-ALL cells from patients
Experimental: Informed consent was obtained according to institutional guidelines. Heparin-treated blood was obtained from three T-ALL patients and from two healthy donors. Patient lymphoblasts were isolated within 24 hours post collection using Ficoll-Paque PLUS density gradient following vendor recommended procedures (GE Healthcare Life Sciences).
(§1) Two different assays were employed: i) In a 96-well plate format, cells (4.0±0.1×10^4 per well; 100 μL) were incubated with effectors (48 h, 37° C.; n=4 per experiment) and then WST-1 reagent (10 μL; Roche Diagnostics) added to each well of 96-well plates, incubated, and the formazan production was measured at 490 nm; and ii) cells (2.0±0.1×10^4 per well; 100 μL) were incubated with effectors (48 h, 37° C.; n=4 per experiment) and then bromodeoxyuridine reagent (10 μL/well; Roche Diagnostics) was added to each well and incubated (8 h, 37° C.). The cells were then fixed, denatured and incubated with anti-BrdU-conjugated with peroxidase (POD) antibody (100 μL/well). Colorimetric substrate (TMB: tetramethyl-benzidine; 100 μL/well) was added and BrdU incorporation quantified via optical density measurement (450 nm) which corresponds to DNA synthesis and proliferating cells.

primary tPTEN−/− cells = test: Cell death of primary tPTEN−/− lines, PI staining and Facs; type: cell-based, murine; details: 2.5-20.0 μM, 48 h, five primary tumors
Jurkat T-ALL line = test: Cell viability of Jurkat human T-ALL cells; type: cell-based
Experimental: as §1

KO99L cells = test: BrdU incorporation Elisa (proliferation) on KO99L cells; type: cell-based, murine; details: 10.0 μM, after 48 h
Experimental: as §1

## Nc1cc(COc2c(Cl)cc(C[C@H](N)C(=O)O)cc2Cl)c2oc(-c3ccccc3)nc2c1 [COMPOUND-JP, O-(5-amino-2-phenylbenzoxazole-7-yl)methyl-3,5-dichloro-L-tyrosine]
[1]
  cell death: did not induce cell death
[2]
  normal cord blood mononuclear cells (living cells): did not significantly alter
[3]
  increase of the tumor, single administration: more significant decrease
mTORC1 / Akt activation
  4EBP1 phosphorylation: no effect
  Akt phosphorylation (serine 473) / activation: interfered with Akt activation
  S6RP phosphorylation (mTORC1 activation): affect mTORC1 activation as early as 2.0 h
Caspase 3; 48 hr
  caspase 3 cleavage: essentially all cellular caspase 3 was processed
Caspase 3; four-to-six hour post addition
  caspase 3 cleavage: caspase 3 cleavage could be observed
Caspase 3; 24 h
  PARP cleavage: fully cleaved
Primary T-ALL cells
  cell viability (COMPOUND-JP sensitivity): concentration dependent
Primary tPTEN−/− cells
  cell death in primary tPTEN−/− cells: dose dependent
Jurkat T-ALL line
  cell survival: alter cell survival
KO99L cells
  diminished cell cycling (proliferation): 75%
